Here are results for 91 compounds from PubChem BioAssay AID489024 (Sanford-Burnham Center for Chemical Genomics, 2010).

Calls of active or inactive are those of the source.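 The calls were made as follows: active = compounds whose mean EC50, the dose giving half the maximal reporter activation, is at or below a set limit; inactive = the rest.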 Where only a bound is given, the exact number is not on record here.

For this test, the target named is CHO-CHOP luciferase reporter, UPR activation, luminescence. The experiment in a line: CHOP reporter induction, apoptotic UPR branch – CHO-CHOP cells, luciferase luminescence, confirmation (AID 489024).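 Also: compounds added alone to reporter cells with no tunicamycin stress co-treatment.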
With `O=C(NCc1cccnc1)/C(=C\c1ccc(-c2ccc(Br)cc2)o1)S(=O)(=O)c1ccccc1`, the EC50 (in general, the concentration that produces a half-maximal response) is 6.67 µM.

As for `O=C(N/N=C/c1ccccn1)c1cc(-c2ccc(Br)cc2)nc2ccccc12`, the EC50 is 2.4 µM.

For the compound `CCOC(=O)c1c(C)oc2c1c(C(c1cccnc1)N1CCCCC1)c(O)c1ccccc12` (stereo unspecified), the EC50 was 15.2 µM.

For `Cn1c(-c2cccc(OCc3ccccc3)c2)nc2c1c(=O)[nH]c(=O)n2Cc1ccccc1`, the EC50 is 13.8 µM.

On to `Cc1ccc(Cc2cnc(NC(=O)/C(C#N)=C/c3ccc(-c4cccc([N+](=O)[O-])c4)o3)s2)cc1`, for which the 50% effective concentration (EC50) was 14.7 µM.

For the compound `COc1cccc(/C=N/Nc2nc(Nc3ccccc3)nc(-n3nc(C)cc3C)n2)c1O`, the EC50 was 4.28 µM.

`O=C(CSc1cccc2cccnc12)N/N=C/c1cccnc1`: the EC50 is 7.64 µM.

Turning to `COCCN1CSC(=S)N(Cc2ccco2)C1`, the EC50 is > 80 µM (inactive).

Turning to `CC(C)(C)c1ccc(/C=C(\c2nc3ccccc3[nH]2)S(=O)(=O)c2ccccc2)cc1`, the EC50 was 7.17 µM.

As to `Cc1ccc(C(=O)Cn2c(C(=O)/C=C/c3ccccc3)nc3ccccc32)cc1`, the half-maximal effective concentration (EC50) was 13.7 µM.

Regarding `Cc1nc([N+](=O)[O-])c(Br)n1CC(=O)c1ccc(Cl)cc1`, the EC50 was > 80 µM (inactive).

With `CCOc1cc(/C=C2/C(=N)N3C=CSC3=NC2=O)ccc1OCCCOc1ccccc1C`, the EC50 entry was “inactive”.

Take `O=C(N/N=C/c1ccccn1)c1cc([N+](=O)[O-])cc([N+](=O)[O-])c1`: the EC50 result is “inactive”.

Take `Cc1cccnc1Nc1nc(-c2ccc(O)c(O)c2)cs1`: the half-maximal effective concentration (EC50) was 3.48 µM.

As for `O=C(COc1ccc2ccccc2c1)N1CCN(Cc2c[nH]c3ccccc23)CC1`, the EC50 was 13.6 µM.

With `COc1ccccc1-c1cc(C(F)(F)F)nc(S(=O)(=O)CCCC(=O)N2CCCCC2C)n1` (stereo unspecified), the 50% effective concentration (EC50) is 7.68 µM.

Take `CCOc1cc(/C=C2\CN(CC)C/C(=C\c3ccc(O)c(OCC)c3)C2=O)ccc1O`: the EC50 was 6.25 µM.

Take `Cc1cccc2sc(NC(=O)c3cc(S(=O)(=O)N(C)C)ccc3N3CCCC3)nc12`: the EC50 result was “inactive”.

Turning to `S=c1[nH]nc(-c2cc(-c3ccccc3)n[nH]2)n1/N=C/C(Br)=C/c1ccccc1`, the EC50 was 7.79 µM.

`Cc1ccc(N2CCN(c3ccc(NCc4nc5ccccc5n4C)cc3)CC2)cc1`: the EC50 entry was “inactive”.

Turning to `O=C(Nc1nc(-c2ccc3ccccc3c2)cs1)c1ccc(N2C(=O)CCC2=O)cc1`, the EC50 is > 80 µM (inactive).

As for `CN=c1scc(-c2ccco2)n1/N=C/c1ccc(O)c(O)c1`, the 50% effective concentration (EC50) is 1.23 µM.

With `CCOC(=O)c1c(C)oc2c1c(C(c1ccccc1)N1CCOCC1)c(O)c1ccccc12` (stereo unspecified), the EC50 was 18 µM.

In the case of `CC(C)N1C(=O)/C(=C/C=C/c2ccco2)C(=O)N(Cc2ccco2)C1=O`, the EC50 is 8.46 µM.

Turning to `COc1cc2nc(NC(=O)c3ccc(Cl)cc3)sc(=O)c2cc1OC`, the EC50 entry is “inactive”.

As to `Cc1ccc(CN2CCN(/N=C/c3ccc(O)c(O)c3)CC2)cc1`, the EC50 is 3.64 µM.

With `C=CCN1C(=O)/C(=C/c2ccc3c(c2)CCCN3CCC)C(=O)NC1=S`, the EC50 was 14 µM.

Regarding `COc1ccc2cc1Oc1ccc(cc1)CC1c3c(cc(OC)c4c3Oc3cc5c(cc3O4)CCNC5C2)CCN1C` (stereo unspecified), the EC50 was > 80 µM (inactive).

Turning to `O=C(Nc1ccc(S(=O)(=O)N2CCOCC2)cc1)c1ccc([N+](=O)[O-])o1`, the EC50 was 0.98 µM.

On to `O=C(N/N=C/c1ccc(O)c(O)c1)NC12CC3CC(CC(C3)C1)C2`, for which the EC50 is 3.34 µM.

As to `O=C(Oc1oc(-c2ccco2)nc1C=Nc1ccc(Cl)cc1)c1ccco1`, the EC50 is 8.89 µM.

For the compound `CSc1nnc(NC(=O)c2nc(S(=O)(=O)Cc3ccccc3F)ncc2Cl)s1`, the EC50 is > 80 µM (inactive).

On to `COc1ccc(C(=O)Cn2c(C(=O)/C=C/c3ccccc3)nc3ccccc32)cc1`, for which the EC50 was 10.1 µM.

As for `Cc1cc(C)nc(SCc2ccc(C(=O)N/N=C/c3cccc(O)c3O)cc2)n1`, the concentration for a half-maximal effect (EC50) is 10.1 µM.

For `CC(=O)c1cccc(NC(=O)CSc2ncc(C(=O)Nc3ccccc3)c(=O)n2C)c1`, the EC50 is 7.28 µM.

As for `COc1cccc2sc(Nc3nc(-c4ccccn4)cs3)nc12`, the EC50 was 1.65 µM.

For `O=C(CCl)Nc1cccc(S(=O)(=O)NC2=NCCCCC2)c1`, the 50% effective concentration (EC50) is 17.8 µM.

On to `Cc1cc(C)cc(N2C(=O)NC(=O)/C(=C\c3cccn3-c3ccccc3)C2=O)c1`, for which the EC50 was 13.9 µM.

For the compound `COc1cc(/C=C/C(=O)N2C(=O)c3cccc(N)c3C2=O)cc(OC)c1OC`, the EC50 is > 80 µM (inactive).

Consider `CCc1ccc2nc(N(CCCN(C)C)C(=O)c3ccc(S(=O)(=O)N(C)C4CCCCC4)cc3)sc2c1`, for which the EC50 is 10.6 µM.

Regarding `O=C1NC(=O)C(=Cc2ccc(-c3ccc(Cl)cc3)o2)C(=O)N1`, the EC50 is 18.2 µM.

As for `CCOc1ccccc1-n1c(SCC(=O)Nc2ccc(CC)cc2)nc2n[nH]c(C)c2c1=N`, the 50% effective concentration (EC50) was 7.22 µM.

For the compound `C=CCn1c(O)c(N=NC(=S)Nc2ccccc2F)c2cc(S(=O)(=O)N3CCOCC3)ccc21`, the EC50 is 7.34 µM.

For `N#CC12COC3(CCCCC3C1(C#N)C#N)OC2=N` (stereo unspecified), the EC50 was > 80 µM (inactive).

`Cc1cc(C(=O)CCl)c(C)n1CC1COc2ccccc2O1` (stereo unspecified): the EC50 was 8.22 µM.

Consider `Cc1c(C(=O)c2cccc3ccccc23)c2cccc3c2n1[C@H](CN1CCOCC1)CO3`, for which the EC50 is 12.4 µM.

In the case of `COc1ccc(C2Nc3ccc4ccccc4c3-c3c2c(=O)oc2ccccc32)cc1` (stereo unspecified), the EC50 was > 80 µM (inactive).

As for `CCCCCC(=O)Nc1ccc(C(=O)N/N=C/c2ccc([N+](=O)[O-])cc2)cc1`, the EC50 entry is “inactive”.

`CCc1ccccc1NC(=S)N=Nc1c(O)n(C)c2ccc(S(=O)(=O)N3CCOCC3)cc12`: the EC50 was > 80 µM (inactive).

Consider `COc1ccc(C(=O)N/N=C(\C)c2ccccn2)cc1OC`, for which the EC50 was 2.82 µM.

Consider `O=C1C(CSCc2ccccc2)NC(=S)N1c1ccccc1` (stereo unspecified), for which the EC50 result is “inactive”.

As for `CC1=C/C(=N\OC(=O)/C=C/c2ccccc2)C(C)=CC1=O`, the EC50 is > 80 µM (inactive).

As for `Cc1ccc(C(=O)Oc2ccc(Cl)c3cccnc23)cc1[N+](=O)[O-]`, the EC50 entry was “inactive”.

Consider `CN(C)C(=S)N=Nc1[nH]c2ccccc2c1O`, for which the EC50 was 6.88 µM.

On to `COc1ccc(-c2ccc(-c3nc4c(c(=O)[nH]c(=O)n4Cc4ccccc4)n3C)o2)c([N+](=O)[O-])c1`, for which the EC50 was > 80 µM (inactive).

For the compound `O=C1NC(=O)N(c2ccccc2)C(=O)/C1=C\C=C\c1ccccc1`, the concentration giving a half-maximal response (EC50) is 4.5 µM.

Consider `CN(C)CC(C(=O)c1ccccc1)c1ccccc1` (stereo unspecified), for which the EC50 is 6.77 µM.

For `COc1ccc(CCNC(=O)c2coc(=O)c(Br)c2)cc1`, the half-maximal effective concentration (EC50) is 7.26 µM.

For the compound `O=C(/C=C/c1ccco1)NC(=S)Nc1ccc(O)c(-c2nc3ccccc3s2)c1`, the EC50 was 11.8 µM.

Regarding `Cc1cc(C)cc(NC(=O)/C(C#N)=C/c2cn(CC(=O)NCc3ccco3)c3ccccc23)c1`, the concentration giving a half-maximal response (EC50) is 7.54 µM.

On to `C/C(=N\NC(=O)COc1ccccc1-c1ccccc1)c1ccccn1`, for which the EC50 was 6.49 µM.

Turning to `N#Cc1ccc(N/N=C/c2cn(-c3ccccc3)nc2-c2ccccc2)c([N+](=O)[O-])c1`, the EC50 was > 80 µM (inactive).

For the compound `C/C(=N\NC(=O)C(C)Oc1ccc([N+](=O)[O-])cc1)c1ccccn1` (stereo unspecified), the 50% effective concentration (EC50) is 10.1 µM.

Regarding `Cc1cnc(NC(=O)c2cc(S(=O)(=O)N(C)C)ccc2N2CCCC2)s1`, the EC50 was 6.42 µM.

With `COC(=O)c1ccc(COc2ccccc2/C=C(\C#N)C(=O)Nc2c(C)cccc2C)cc1`, the EC50 is 11.8 µM.

Turning to `COC(=O)C1=C(C)N(c2ccc(C)c(C)c2)/C(=C/c2cccs2)C1=O`, the EC50 was > 80 µM (inactive).

Turning to `O=C(/C=C1\NC2(CCCC2)Cc2ccccc21)C(=O)N/N=C/c1ccc(O)c(O)c1`, the half-maximal effective concentration (EC50) is 9.4 µM.

Take `CC(C)N1C/C(=C/c2ccsc2)C(=O)/C(=C/c2ccsc2)C1`: the EC50 is 7.08 µM.

Regarding `CCCCOc1ccc(N2C(=O)CC(N(O)c3ccccc3)C2=O)cc1` (stereo unspecified), the EC50 is 7.25 µM.

Turning to `O=C(NCc1cccnc1)/C(=C/c1ccc(-c2ccc(Cl)cc2)o1)S(=O)(=O)c1ccccc1`, the EC50 is 6.18 µM.

As for `O=C1NC(=O)N(CCc2ccc(F)cc2)C(=O)/C1=C/C=C/c1ccccc1`, the 50% effective concentration (EC50) is 4.74 µM.

For `CNC[C@@H](Cc1ccccc1)NC[C@@H](CC1CCCCC1)NCCCc1ccccc1`, the EC50 was 4.63 µM.

As for `CCc1ccc(NC(=O)C(CC)Sc2nc3cc4c(cc3c(=O)n2Cc2ccco2)OCO4)cc1` (stereo unspecified), the EC50 is 14.9 µM.

For `O=C1/C(=C/c2ccc(N3CCOCC3)o2)SC(=Nc2ccccc2)N1CCc1c[nH]c2ccccc12`, the EC50 was 16.6 µM.

In the case of `CCOc1cc(NC(=O)CCl)c(OCC)cc1NC(=O)CCl`, the EC50 entry is “inactive”.

Take `O=C(/C(=N/N=C/c1ccc(O)c(O)c1)c1ccccc1)c1ccccc1`: the EC50 is 7.97 µM.

For `O=C(CSC(=S)N1CCCC1)c1cc(Br)cc(Br)c1O`, the EC50 result is “inactive”.

On to `Cn1nnnc1Sc1ncnc2scc(-c3ccc([N+](=O)[O-])cc3)c12`, for which the EC50 is 12.3 µM.

For `COc1cccc2sc(N3CCN(c4nc5ccccc5s4)CC3)nc12`, the EC50 is 13.8 µM.

As for `CCN(CC)c1ccc(C=C2C(=O)NC(=S)NC2=O)cc1`, the concentration for a half-maximal effect (EC50) was 11.9 µM.

On to `Cc1cccc(Nc2nc3c(S(=O)(=O)c4ccccc4)nnn3c3ccccc23)c1C`, for which the EC50 entry is “inactive”.

As to `COc1ccc(C2c3ccc4ccccc4c3Oc3ncn(CCCN(C)C)c(=N)c32)cc1` (stereo unspecified), the EC50 was 6.82 µM.

For the compound `CCOC(=O)C(=Cc1ccc(-n2cncn2)cc1)C(=O)OCC`, the EC50 is 11.4 µM.

As for `O=C1Nc2ccc(Br)cc2/C1=N/N=C/C1=C(N2CCOCC2)C(=C\c2ccccc2)/CC1`, the EC50 was > 80 µM (inactive).

In the case of `OCCNc1nc(Nc2ccc(Cl)c(Cl)c2)nc2ccccc12`, the EC50 was 11.7 µM.

Consider `Cc1cc(SCC(=O)N/N=C/c2ccc(O)c(O)c2)nc2ccccc12`, for which the concentration giving a half-maximal response (EC50) was 18.3 µM.

Regarding `Cc1cc(C)nc(S/C=C/C(=O)c2ccccc2)n1`, the EC50 was 6.72 µM.

As for `Cc1ccc(Nc2nc(-c3ccc(O)c(O)c3)cs2)nc1`, the EC50 was 1.56 µM.

`CN(C(=O)CSc1cc(C(=O)c2nccn2C)c2ccccc2n1)c1ccccc1`: the 50% effective concentration (EC50) is 7.96 µM.

With `NC(N)=N/N=C/c1ccc(N(c2ccccc2)c2ccccc2)cc1`, the EC50 is > 80 µM (inactive).

As for `Cc1ccc(S/C=C\C(=O)c2ccccc2)cc1`, the EC50 was > 80 µM (inactive).
